Laboratory results taken from patent US9487481B2, “Bicyclic compounds” (BRISTOL-MYERS SQUIBB COMPANY, priority 2013, dated 2016).
Values joined by “and” are separate entries in the source; they are usually repeats but may differ in a detail not shown here. Equal values may be shown once.

What was measured:
mice = test: Pulmonary Toxicity Assay (BAL protein); assay type: in vivo; conditions: oral, 30 mg/kg, 24 hr post-dose; for Relative BAL protein vs. control: >1 = increased pulmonary toxicity
Method: The analysis of protein levels in bronchoalveolar lavage (BAL) fluid obtained from an animal were used to gauge pulmonary side effects. Increased levels of protein in BAL fluid were indicative of undesired pulmonary effects, such as pulmonary edema. Example 1, Example 2, Compound 6, Compound 8, and Compound 11 were administered orally to mice at a dose of 30 mg/kg. At 24 hours post dose, the mice were euthanized with intraperitoneal barbiturate overdose. The animals were placed in a supine position, a skin incision was made and blunt dissection followed to expose the trachea. The trachea was incised and a catheter was inserted 4-6 mm into the trachea. Phosphate-buffered saline (PBS; 1 mL/mouse) was infused into the lungs and then aspirated. The concentration of the BAL protein in the recovered BAL fluid was determined on an ADVIA® 1800 Chemistry Analyzer (Siemens Healthcare Diagnostics). The results represent the average results of all animals within each treatment group (n=2-4).
A value for the relative BAL protein versus control of greater than 1 indicated an increase in pulmonary toxicity compared to the administration of vehicle only. In this study, as reported in Table 5, the administration of Examples 1 and 2 gave relative BAL protein levels of 0.99 and 0.96, indicating no increase in the pulmonary toxicity. The administration of Compound 8 gave a relative BAL protein level of 1.03, which indicated slight or no increase in pulmonary toxicity. In contrast, administration of Compound 6 and Compound 11 gave relative BAL protein levels of 1.94 and 1.33, indicating increased pulmonary toxicity.

circulating lymphocytes [1] = test: Mouse Blood Lymphocyte Reduction (BLR) Assay; assay type: in vivo; conditions: BALB/c mice, oral, 1 mg/kg, 24 hr post-dose
Method: (§1) Lewis rats were dosed orally with vehicle alone (polyethylene glycol 300, “PEG300”) or with 2-amino-2-[2-(4-octylphenyl)ethyl]-1,3-propanediol, hydrochloride (CAS: 162359-56-0) as a solution in the vehicle at doses of 0.1 mg/kg, 0.5 mg/kg and 3.0 mg/kg adjusted to reflect the free amount of test article. The results are provided in Table 4a and the level of lymphocyte reduction at 24 hours post-dose was maximal at 3.0 mg/kg. The percent reduction in lymphocytes is dose-related but the relationship is not linear, with non-proportional increases in dose being required to elicit sequentially greater reductions in lymphocyte counts. […] BALB/c mice were dosed orally with vehicle alone (polyethylene glycol 300, “PEG300”) or with Example 1, Example 2, Compound 6, Compound 8, or Comparative Compound 11. Compounds were dosed as a solution or suspension in the vehicle, adjusted to reflect the free amount of test article in the event that salt forms are utilized. Blood was drawn at 24 hr and blood lymphocyte counts were determined on an ADVIA® 120 Hematology Analyzer (Siemens Healthcare Diagnostics). The results were measured as a reduction in the percentage of circulating lymphocytes as compared to the vehicle treated group at the time of measurement. The results represent the average results of all animals within each treatment group (n=2-4).

GFP-tagged S1P1 receptor = molecular target: T1, GFP-tagged S1P1 receptor (Homo sapiens, UniProt P21453); test: S1P1 Receptor Internalization Assay; assay type: cell-based; conditions: CHO-K1 cells expressing GFP-tagged S1P1, 45 min
T1 construct: expressed in transfected cells; host or cells: CHO-K1 cells
T1 sequence (P21453 whole entry): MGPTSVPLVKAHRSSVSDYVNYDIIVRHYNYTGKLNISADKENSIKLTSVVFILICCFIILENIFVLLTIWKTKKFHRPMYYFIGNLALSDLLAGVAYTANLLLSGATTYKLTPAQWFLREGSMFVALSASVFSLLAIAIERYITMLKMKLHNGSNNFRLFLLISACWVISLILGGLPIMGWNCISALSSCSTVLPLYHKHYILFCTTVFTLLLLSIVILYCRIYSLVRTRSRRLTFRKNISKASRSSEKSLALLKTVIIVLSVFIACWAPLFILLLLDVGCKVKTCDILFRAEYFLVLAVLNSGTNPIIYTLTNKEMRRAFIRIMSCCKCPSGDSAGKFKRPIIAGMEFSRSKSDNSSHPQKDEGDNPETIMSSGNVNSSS
Method: CHO-K1 cells expressing a GFP-tagged S1P1 receptor were plated in 384-well poly-D-lysine coated tissue culture plates at 4×10^3 cells/well in 50 μl assay media (F12 with L-glutamine, 10% charcoal/dextran-treated FBS, 1× penicillin-streptomycin, 1M HEPES). Cell plates were incubated overnight at 37° C./5% CO2. Test compound were introduced to the cell plate from a compound source plate at 11 point, 3 fold serial dilutions and then the assay plates were incubated at 37° C./5% CO2 for 45 min. Cells were fixed and stained with 6% formaldehyde and 15 μg/ml Hoechst dye in PBS (Ca^2+/Mg^2+ free) at room temperature for 15 minutes. Cell plates were washed 4 times with PBS (Ca^2+/Mg^2+ free) with addition of 50 μl/PBS prior to plate sealing. Images were acquired by the Cellomics ARRAYSCAN® VTI high content imager. Data analysis for EC50 determination relative to internal control compound was accomplished using the Compartmental Analysis BioApplication on the Array Scan. The EC50 is defined as the agonist concentration that corresponds to 50% of the Ymax (maximal response) obtained for each individual compound tested and was quantified using the 4 parameter logistic equation to fit the data.

Male MRL/lpr mice = test: MRL/lpr Mouse Model of Spontaneous Lupus Erythematosus Assay; assay type: in vivo
Method: MRL/lpr mouse model of spontaneous lupus erythematosus assay is an animal model for spontaneous lupus erythematosus.
Male MRL/lpr mice (14 weeks old; Jackson Laboratories; n=12-13) were orally dosed with Example 2 (as a solution in vehicle) or vehicle alone (polyethylene glycol 300) twice a week for 11 weeks starting on day 0. Urine protein levels (by Albustix) were measured on day 0 and throughout the study. […] Additional groups of mice received a daily oral dose of dexamethasone (Dex) either independently or in combination with twice weekly dosing with Example 2. Urine protein levels (by Albustix) were measured on day 0 and throughout the study. […] All procedures involving animals were reviewed and approved by the Institutional Animal Care Use Committee.
Example 2 was tested in the MRL/lpr mouse model of spontaneous lupus erythematosus assay described hereinabove and the results are shown in Table 9.
Example 2 and dexamethasone (Dex) either independently or in combination, were tested in the MRL/lpr mouse model of spontaneous lupus erythematosus assay described hereinabove and the results are shown in Table 10.

circulating lymphocytes [2] = test: Rat Blood Lymphocyte Reduction (BLR) Assay; assay type: in vivo; conditions: Lewis rats, oral, 24 hr post-dose; for Percent reduction vs. control (rat blood lymphocytes): hydrochloride
Method: as §1

Male Lewis rats = test: Rat Adjuvant Induced Arthritis Assay (AA); assay type: in vivo; conditions: prophylactic
Method: The rat adjuvant-induced arthritis model is an animal model for human rheumatoid arthritis.
Male Lewis rats (150-175 g; Harlan, n=8 treatment group) were immunized at the base of the tail with 100 μl of 10 mg/ml freshly ground Mycobacterium butyricum (Difco Laboratories) in incomplete Freund's adjuvant (sigma). Animals were dosed once daily with the test article (as a solution or suspension in the vehicle) or vehicle alone (polyethylene glycol 300, “PEG300”) starting from the day of immunization. The volumes of their hind paws were measured in a water displacement plethysmometer (Ugo Basile, Italy). The baseline paw measurements were taken before onset of the disease (between day 7 to day 10). The paw measurements were then taken three times a week until the end of the study on day 20 to 21. All procedures involving animals were reviewed and approved by the Institutional Animal Care Use Committee.
Example 2 of the present invention was tested in the Rat Adjuvant Induced Arthritis assay described hereinabove and the results are shown in Table 7.

CB-17 SCID mice = test: Mouse T Cell Transfer Induced Colitis Assay; assay type: in vivo; conditions: q.o.d. oral; for Inflammation/Damage (Histology), Mean: 6 wk
Method: The mouse T Cell transfer induced colitis assay is an animal model for human colitis.
Colitis was induced in CB-17 SCID mice by the adoptive transfer of FACS sorted CD4^+CD45RB^high T cells from BALB/c mice (3×10^5/mouse, i.p.). Disease activities were monitored once a week for the initial 3 weeks and 3×/week for the subsequent weeks on the basis of body weight, soft stool or diarrhea, and anorectal prolapse. Animals were dosed orally every other day (q.o.d.) with the test article or vehicle starting from the day of T cell transfer. Mice were sacrificed 6 wk after T cell reconstitution and analyzed for bowel inflammation based on histological examination of H&E stained colon tissues. All procedures involving animals were reviewed and approved by the Institutional Animal Care Use Committee.
Example 2 was tested in the mouse T cell transfer induced colitis model described hereinabove and the results are shown in Table 8.

S1P1 [3] = molecular target: T2, S1P1 (Homo sapiens, UniProt P21453); test: Receptor [35S] GTPγS Binding Assay, S1P1/CHO cell membranes; assay type: biochemical; conditions: membranes prepared from S1P1/CHO cells
T2 sequence (P21453 whole entry): as above
Method: (§2) Compounds were loaded in a 384 FALCON® v-bottom plate (0.5 μl/well in a 11 point, 3-fold dilution). Membranes prepared from S1P1/CHO cells or EDG3-Ga15-bla HEK293T cells (EDG3 equivalent S1P3) were added to the compound plate (40 μl/well, final protein 3 μg/well) with MULTIDROP®. [^35S]GTP (1250 Ci/mmol, Perkin Elmer) was diluted in assay buffer: 20 mM HEPES, pH7.5, 10 mM MgCl2, 150 mM NaCl, 1 mM EGTA (ethylene glycol tetraacetic acid), 1 mM DTT (Dithiothreitol), 10 μM GDP, 0.1% fatty acid free BSA, and 10 μg/ml Saponin to 0.4 nM. 40 μl of the [^35S] GTP solution was added to the compound plate with a final concentration of 0.2 nM. The reaction was kept at room temperature for 45 min. At the end of incubation, all the mixtures in the compound plate were transferred to Millipore 384-well FB filter plates via the VELOCITY11® Vprep liquid handler. The filter plate was washed with water 4 times by using the manifold Embla plate washer and dried at 60° C. for 45 min. MicroScint 20 scintillation fluid (30 μl) was added to each well for counting on the Packard TOPCOUNT®. EC50 is defined as the agonist concentration that corresponds to 50% of the Ymax (maximal response) obtained for each individual compound tested.
(§3) A larger value for the GTPγS S1P3 EC50 value indicated less activity in the GTPγS S1P3 binding assay.

EDG3 equivalent S1P3 = EDG3 equivalent S1P3 (Homo sapiens, UniProt Q99500); test: Receptor [35S] GTPγS Binding Assay, EDG3-Ga15-bla HEK293T cell membranes; assay type: biochemical; conditions: membranes prepared from EDG3-Ga15-bla HEK293T cells
Chain of EDG3 equivalent S1P3 (Q99500 whole entry): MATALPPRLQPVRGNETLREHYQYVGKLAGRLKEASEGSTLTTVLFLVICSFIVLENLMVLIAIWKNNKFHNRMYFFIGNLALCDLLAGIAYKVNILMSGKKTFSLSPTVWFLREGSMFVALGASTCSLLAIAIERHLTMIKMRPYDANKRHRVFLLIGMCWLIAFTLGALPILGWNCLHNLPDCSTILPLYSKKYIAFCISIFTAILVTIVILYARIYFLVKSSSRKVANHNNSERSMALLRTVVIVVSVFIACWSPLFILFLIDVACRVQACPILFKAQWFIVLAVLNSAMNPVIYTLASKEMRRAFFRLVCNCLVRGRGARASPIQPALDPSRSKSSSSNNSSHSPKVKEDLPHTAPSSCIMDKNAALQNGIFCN
Method: as §2, §3

S1P1 [4] = molecular target: T2, S1P1; test: S1P1 Binding Assay (33P-S1P ligand, CHO membranes); conditions: membranes from CHO cells expressing human S1P1, 0.03 nM 33P-S1P
Method: Membranes were prepared from CHO cells expressing human S1P1. Cells pellets (1×10^9 cells/pellet) were suspended in buffer containing 20 mM HEPES (4-(2-hydroxyethyl)-1-piperazineethanesulfonic acid), pH 7.5, 50 mM NaCl, 2 mM EDTA (Ethylenediaminetetraacetic acid) and Protease Inhibitor cocktail (Roche), and disrupted on ice using the Polytron homogenizer. The homogenate was centrifuged at 20,000 rpm (48,000 g) and the supernatant was discarded. The membrane pellets were resuspended in buffer containing 50 mM HEPES, pH 7.5, 100 mM NaCl, 1 mM MgCl2, 2 mM EDTA and stored in aliquots at −80° C. after protein concentration determination.
Membranes (2 μg/well) and 0.03 nM final concentration of ^33P-S1P ligand (1 mCi/ml, Perkin Elmer or American Radiolabeled Chemicals) diluted in assay buffer (50 mM HEPES, pH7.4, 5 mM MgCl2, 1 mM CaCl2, 0.5% fatty acid free BSA (bovine serum albumin), 1 mM NaF) were added to the compound plates (384 FALCON® v-bottom plate (0.5 μl/well in a 11 point, 3-fold dilution). Binding was performed for 45 minutes at room temperature, terminated by collecting the membranes onto 384-well Millipore FB filter plates, and radioactivity was measured by TOPCOUNT®. The competition data of the test compounds over a range of concentrations was plotted as percentage inhibition of radioligand specific binding. […]

CCCCCC[C@H]1CCc2cc([C@@H]3CC[C@](N)(CO)C3)ccc2C1 [Compound 6, ((1R,3R)-1-amino-3-((S)-6-hexyl-5,6,7,8-tetrahydronaphthalen-2-yl)cyclopentyl)methanol]
Mouse BAL protein level, Compound Mean (mice): 14.3 mg/dL | Relative BAL protein vs. control (mice): 1.94 and 1.96 | Mouse blood lymphocytes, Compound Mean (circulating lymphocytes [1]): 1.2 | Percent reduction vs. control (mouse blood lymphocytes) (circulating lymphocytes [1]): 78%

CCCCCC[C@@H]1CCc2cc([C@@H]3CC[C@](N)(COP(=O)(O)O)C3)ccc2C1 [Example 9, ((1R,3R)-1-Amino-3-((R)-6-hexyl-5,6,7,8-tetrahydronaphthalen-2-yl)cyclopentyl)methyl dihydrogen phosphate]
EC50 (GFP-tagged S1P1 receptor): 361 nM

C[C@@H]1C[C@H]2[C@@H]3CCC4=CC(=O)C=C[C@]4(C)[C@@]3(F)[C@@H](O)C[C@]2(C)[C@@]1(O)C(=O)CO [Dex, dexamethasone, reference compound]
% Mice with Proteinurea > 100 mg/dL (Male MRL/lpr mice; 24 weeks of age, 0.1 mg/kg q.d. oral): 50% | % Mice with Proteinurea > 100 mg/dL (Male MRL/lpr mice; 24 weeks of age, 0.5 mg/kg q.d. oral): 10%

CCCCCCCCc1ccc(CCC(N)(CO)CO)cc1.Cl [2-amino-2-[2-(4-octylphenyl)ethyl]-1,3-propanediol, hydrochloride]
Rat blood lymphocytes, Compound Mean (circulating lymphocytes [2]; 0.1 mg/kg): 2.78 | Percent reduction vs. control (rat blood lymphocytes) (circulating lymphocytes [2]; 0.1 mg/kg): 69% | Rat blood lymphocytes, Compound Mean (circulating lymphocytes [2]; 0.5 mg/kg): 1.64 | Percent reduction vs. control (rat blood lymphocytes) (circulating lymphocytes [2]; 0.5 mg/kg): 82% | Rat blood lymphocytes, Compound Mean (circulating lymphocytes [2]; 3.0 mg/kg): 1.02 | Percent reduction vs. control (rat blood lymphocytes) (circulating lymphocytes [2]; 3.0 mg/kg): 89%

CCCCCOc1ccc2cc([C@@H]3CC[C@](N)(CO)C3)ccc2c1 [Comparative Compound 11, reference compound]
Mouse BAL protein level, Compound Mean (mice): 13.3 mg/dL | Relative BAL protein vs. control (mice): 1.33 | Mouse blood lymphocytes, Compound Mean (circulating lymphocytes [1]): 2.18 | Percent reduction vs. control (mouse blood lymphocytes) (circulating lymphocytes [1]): 52%

CCCCCC[C@H]1CCc2cc([C@H]3CC[C@](N)(CO)C3)ccc2C1 [Compound 8, ((1R,3S)-1-amino-3-((S)-6-hexyl-5,6,7,8-tetrahydronaphthalen-2-yl)cyclopentyl)methanol]
Mouse BAL protein level, Compound Mean (mice): 7.5 mg/dL | Relative BAL protein vs. control (mice): 1.03 | Mouse blood lymphocytes, Compound Mean (circulating lymphocytes [1]): 2.4 | Percent reduction vs. control (mouse blood lymphocytes) (circulating lymphocytes [1]): 59%

CCCCCC[C@@H]1CCc2cc([C@H]3CC[C@](N)(CO)C3)ccc2C1 (single isomer, unassigned) [Example 2]
Paw Swelling on Day 20, Mean (Male Lewis rats; 0.15 mg/kg once daily oral): 1.64 mL | Paw Swelling on Day 20, Mean (Male Lewis rats; 0.5 mg/kg once daily oral): 0.70 mL | Paw Swelling on Day 20, Mean (Male Lewis rats; 1.5 mg/kg once daily oral): 0.16 mL | Mouse BAL protein level, Compound Mean (mice): 8.0 mg/dL | Relative BAL protein vs. control (mice): 0.96 | Week 6 Percent Body Weight Changes, Mean (from 100%) (CB-17 SCID mice; 1 mg/kg): 100% → 98.7% | Inflammation/Damage (Histology), Mean (CB-17 SCID mice; 1 mg/kg): 5.46 | Week 6 Percent Body Weight Changes, Mean (from 100%) (CB-17 SCID mice; 5 mg/kg): 100% → 103.7% | Inflammation/Damage (Histology), Mean (CB-17 SCID mice; 5 mg/kg): 3.71 | Mouse blood lymphocytes, Compound Mean (circulating lymphocytes [1]): 0.54 | Percent reduction vs. control (mouse blood lymphocytes) (circulating lymphocytes [1]): 90% | % Mice with Proteinurea > 100 mg/dL (Male MRL/lpr mice; 24 weeks of age, 2 mg/kg, 2x week oral): 20% | % Mice with Proteinurea > 100 mg/dL (Male MRL/lpr mice; 25 weeks of age, 0.05 mg/kg, 2x week oral): 25% | % Mice with Proteinurea > 100 mg/dL (Male MRL/lpr mice; 25 weeks of age, 0.4 mg/kg, 2x week oral): 17% | % Mice with Proteinurea > 100 mg/dL (Male MRL/lpr mice; 25 weeks of age, 2 mg/kg, 2x week oral): 10%

CCCCCC[C@@H]1CCc2cc([C@@H]3CC[C@](N)(CO)C3)ccc2C1 (single isomer, unassigned) [Example 1]
Mouse BAL protein level, Compound Mean (mice): 8.25 mg/dL | Relative BAL protein vs. control (mice): 0.99 | Mouse blood lymphocytes, Compound Mean (circulating lymphocytes [1]): 0.7 | Percent reduction vs. control (mouse blood lymphocytes) (circulating lymphocytes [1]): 88%

CCCCCC[C@@H]1CCc2cc([C@H]3CC[C@](N)(COP(=O)(O)O)C3)ccc2C1 [Example 10, (1R,3 S)-1-Amino-3-((R)-6-hexyl-5,6,7,8-tetrahydronaphthalen-2-yl) cyclopentyl)methyl dihydrogen phosphate]
EC50 (S1P1 [3]): 0.9 nM | EC50 (EDG3 equivalent S1P3): > 62500 nM | IC50 (S1P1 [4]): 0.01 nM
